Source: PubChem BioAssay AID330 (DTP/NCI, 2004)
Several values for one entry are separate records, joined by “and”; a condition that tells them apart may be missing. Identical values can stand only once. Toxic doses and inconclusive results are not listed. The calls were made as follows: active = survival T/C of 150% or more; inactive = T/C below 125% in these data.

Test system: P388 leukemia ip, CD2F1 mice, survival T/C
Assay: NCI In Vivo Anticancer Drug Screen. Data for tumor model P388 Leukemia (intraperitoneal) in CD2F1 (CDF1) mice
Details: endpoint: median survival time, higher = longer survival
Summary of the method: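 Mice carrying the transplanted tumor received test compound or vehicle. Survival was recorded in each group, and the value is the treated-group measurement divided by that of the vehicle-treated control group.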

[1] = dose: 100.0 mg/kg/injection, schedule: Q04DX002 (ip), vehicle: saline
[2] = dose: 200.0 mg/kg/injection, schedule: Q04DX002 (ip), vehicle: saline
[3] = dose: 400.0 mg/kg/injection, schedule: Q04DX002 (ip), vehicle: saline
[4] = dose: 50.0 mg/kg/injection, schedule: Q01DX005 (ip), vehicle: Klucel (hydroxypropylcellulose) (HPC)
[5] = dose: 100.0 mg/kg/injection, schedule: Q01DX005 (ip), vehicle: Klucel (hydroxypropylcellulose) (HPC)
[6] = dose: 200.0 mg/kg/injection, schedule: Q01DX005 (ip), vehicle: Klucel (hydroxypropylcellulose) (HPC)
[7] = dose: 50.0 mg/kg/injection, schedule: Q01DX009 (ip), vehicle: Klucel (hydroxypropylcellulose) (HPC)

Measured: T/C

C[C@@H]1C[C@H](C)S(=O)[C@H](C)S1 (some centres undefined)
inactive: [1] 101 % of control | [2] 102 % of control | [3] 100 % of control

COc1cc2c(cc1O)c[n+](C)c1c3cc(OC)c(OC)cc3ccc21
inactive: dose: 7.8 mg/kg/injection, schedule: Q01DX009 (ip), vehicle: other 107 % of control | dose: 31.3 mg/kg/injection, schedule: Q01DX009 (ip), vehicle: other 122 % of control | dose: 62.5 mg/kg/injection, schedule: Q01DX009 (ip), vehicle: other 120 % of control | dose: 125.0 mg/kg/injection, schedule: Q01DX009 (ip), vehicle: other 120 % of control

COc1cc2c(cc1OC)C(=O)OC(=O)C2
inactive: [4] 100 % of control | [5] 92 % of control | [6] 95 % of control

CCCCC(CC)CN1CN(CC(CC)CCCC)CC(C)(N)C1 (centres undefined)
inactive: dose: 50.0 mg/kg/injection, schedule: Q01DX005 (ip), vehicle: saline with Tween-80 100 % of control | dose: 100.0 mg/kg/injection, schedule: Q01DX005 (ip), vehicle: saline with Tween-80 98 % of control

COc1cc2c(-c3c4c5c(cc(OC)c(OC)c5c5cc(OC)c(OC)cc35)CCN4C)c3c4c(cc(OC)c(OC)c4c2cc1OC)CCN3C
inactive: [1] 101 % of control | [2] 102 % of control | [3] 101 % of control

COc1cccc2c1C(=O)c1c(O)c3c(c(O)c1C2=O)CC(O)(C(=O)CO)CC3OC1CC(N)C(I)C(C)O1 (centres undefined)
active: dose: 5.0 mg/kg/injection, schedule: Q01DX001 (ip), vehicle: saline 165 % of control and 170 % of control | dose: 7.5 mg/kg/injection, schedule: Q01DX001 (ip), vehicle: saline 167 % of control and 191 % of control | dose: 11.2 mg/kg/injection, schedule: Q01DX001 (ip), vehicle: saline 208 % of control and 212 % of control | dose: 16.8 mg/kg/injection, schedule: Q01DX001 (ip), vehicle: saline 220 % of control | dose: 25.2 mg/kg/injection, schedule: Q01DX001 (ip), vehicle: saline 234 % of control

Cc1ccc(C(O)(CNC2CCCCC2)c2ccccc2)cc1 (centres undefined)
inactive: dose: 25.0 mg/kg/injection, schedule: Q01DX009 (ip), vehicle: saline sonified 104 % of control | dose: 50.0 mg/kg/injection, schedule: Q01DX009 (ip), vehicle: saline sonified 104 % of control

O=S(=O)(Nc1cc2ccccc2cc1NS(=O)(=O)N1CCCCC1)N1CCCCC1
inactive: [7] 93 % of control | dose: 100.0 mg/kg/injection, schedule: Q01DX009 (ip), vehicle: Klucel (hydroxypropylcellulose) (HPC) 89 % of control

CN(C/C=C/CN(C)N=O)N=O
inactive: dose: 12.5 mg/kg/injection, schedule: Q01DX009 (ip), vehicle: Klucel (hydroxypropylcellulose) (HPC) 116 % of control | dose: 25.0 mg/kg/injection, schedule: Q01DX009 (ip), vehicle: Klucel (hydroxypropylcellulose) (HPC) 118 % of control | [7] 96 % of control

CCCCCCCCCC[n+]1cccc(C(N)=O)c1
inactive: dose: 5.0 mg/kg/injection, schedule: Q01DX009 (ip), vehicle: saline with Tween-80 100 % of control | dose: 10.0 mg/kg/injection, schedule: Q01DX009 (ip), vehicle: saline with Tween-80 109 % of control | dose: 20.0 mg/kg/injection, schedule: Q01DX009 (ip), vehicle: saline with Tween-80 113 % of control

CCOC(=O)C1CSC(c2c(CO)cnc(C)c2O)N1 (centres undefined)
inactive: dose: 60.0 mg/kg/injection, schedule: Q01DX005 (ip), vehicle: Klucel (hydroxypropylcellulose) (HPC) 100 % of control | dose: 120.0 mg/kg/injection, schedule: Q01DX005 (ip), vehicle: Klucel (hydroxypropylcellulose) (HPC) 99 % of control | dose: 240.0 mg/kg/injection, schedule: Q01DX005 (ip), vehicle: Klucel (hydroxypropylcellulose) (HPC) 99 % of control

CC1CCC2(OC1)OC1CC3C4CC=C5CC(O)CCC5(C)C4CCC3(C)C1C2C (centres undefined)
inactive: [4] 100 % of control | [5] 89 % of control | [6] 86 % of control

CC(=O)C(N)=O
inactive: dose: 50.0 mg/kg/injection, schedule: Q01DX005 (ip), vehicle: saline 98 % of control | dose: 100.0 mg/kg/injection, schedule: Q01DX005 (ip), vehicle: saline 100 % of control | dose: 200.0 mg/kg/injection, schedule: Q01DX005 (ip), vehicle: saline 101 % of control
